Results on 88 compounds are retold here after a melting point compilation (Tetko et al.; mined from patent text by program, amines drawn as free bases though some values may be those of a salt).

A word on the melting point: it is the temperature, or range, at which the solid turns liquid. As for `CC(C)(C)OC(=O)CON=C(C(=O)O)c1ccco1`, the melting point fell in the range of 105 to 106 °C.

In turn, `CCCCc1nc2c(N)nc3ccc(O)cc3c2n1CCCCNS(=O)(=O)c1ccccc1` returned a melting point of 219 to 223 °C.

The compound `C[Si](C)(C)C1([Si](C)(C)C)c2ccccc2-c2ccccc21` had a melting point of 110 to 112 °C.

With `CCn1c(=O)c2nc(C=NO)cn2c2ccccc21`, the melting point fell in the range of 286 to 288 °C.

As for `CC1(C)CCC(C)(C)c2cc(C3=NN(c4ccc(C(=O)O)cc4)CC3)ccc21`, the melting point lay within 276 to 278 °C.

Take `CCN(CC)c1nc(-c2ccc3c(c2)OCO3)nc2sc(C#N)c(C)c12`: the melting point is 199 to 201 °C.

In turn, `CC(C)(C)OC(=O)N1CCCN(c2cncc(-c3cccc([N+](=O)[O-])c3)c2)CC1` gave a melting point of 129 to 130 °C.

Consider `CCCCc1nc2cnc3ccccc3c2n1CC1(O)CCOCC1`, for which the melting point is 180 to 181 °C.

In turn, `CN(C)c1c[nH]c2ncccc12` gave a melting point of 144 to 152 °C.

Take `CCNC(=O)C(c1ccccc1)N1CCN(c2ccc(NC(=O)c3ccccc3-c3ccc(C(F)(F)F)cc3)cc2)CC1` (stereo not drawn): the melting point is 123 °C.

`COc1ccc(CC(=O)NCC(OC)OC)cc1OC` had a melting point of 60 to 63 °C.

The compound `CC(=O)Nc1cccc(-c2cc3nc(-c4cccnc4N)n(-c4cccc(-c5cc(C)nc6ccc(NC(C)=O)cc56)c4)c3nc2-c2cccnc2)c1` yielded a melting point of 176 to 178 °C.

For `CN(C)c1nc(N(C)C)nc(N(C)Cc2ccccc2O)n1`, the melting point was in the range of 169 to 171 °C.

With `O=C(OCC(=O)c1ccc(C(F)(F)F)cc1)Oc1ccccc1`, the melting point was 134 to 135 °C.

For `CC(C)Cn1cnc2cnc3cccnc3c21`, the melting point was 82 to 84 °C.

`COc1cc2nc(-c3n[nH]cc3NC(=O)C3CC3)[nH]c2cc1Cl` displayed a melting point of 225 to 226 °C.

As to `CC(=O)N(c1ccc(F)cc1Cl)S(=O)(=O)CCl`, the melting point fell in the range of 89 to 92 °C.

Compound `Cc1nnc(-c2ccc3occ(-c4ccc5c(c4)C(C)(C)CS5=O)c3c2)o1` (stereo not drawn) showed a melting point of 179 to 180 °C.

With `O=C(OC(c1ccccc1)c1ccccc1)C(=C(CBr)N1CCOCC1)N1C(=O)C2N=C(Cc3ccccc3)SC21` (stereo not drawn), the melting point lay in the range of 93 to 96 °C.

The compound `CC(C)Cn1c(CO)nc2c(N)nc3c(c21)CCCC3` returned a melting point of 226 °C.

On to `CC1(C)CCCN(C(=O)c2ccccc2NC(=O)CN2C(=O)c3ccccc3C2=O)C1`, for which the melting point was determined as 158 °C.

Regarding `COc1ccc(-c2nc3cc(F)ccc3s2)cc1OC(=O)c1ccccc1Cl`, the melting point came out at 190 °C.

On to `CC(=O)OCc1cccc(-c2ccco2)c1C`, for which the melting point lay within 48.5 to 50 °C.

`CCOC(=O)C(CC(C)C)NC(=O)N1CCc2cc(S(=O)(=O)N3CCN(c4cccc(Cl)c4)CC3)ccc21` (stereo not drawn) displayed a melting point of 76 to 77 °C.

Turning to `Clc1cccc(OCCBr)c1Cl`, the melting point was 51 to 56 °C.

For the compound `Cc1ccc(C(N)(c2ccc3c(c2)c(-c2cccc(Cl)c2)nc2nnnn23)c2cncn2C)cc1` (stereo not drawn), the melting point was 150 °C.

The compound `Nc1cccc(Cn2c(-c3ccc(NC(=O)c4ccccc4)cc3)ccc2-c2ccccc2Cl)n1` had a melting point of 196 to 198 °C.

The compound `Cc1cc(C)c2c(n1)CCCC2=O` returned a melting point of 54 to 57 °C.

As to `COC(=O)C(C)(C)CCCOc1cc(C)c(OC(=O)Nc2c(C(C)C)cccc2C(C)C)cc1C`, the melting point lay within 111 to 112 °C.

Take `O=C(c1ccc(Br)cc1)N1CC(=O)N2CCc3ccccc3C2C1` (stereo not drawn): the melting point is 204 to 206 °C.

`Cc1ccc(Nc2ccccc2NC(=O)CCCc2ccc(N=C(N)c3cccs3)cc2)cc1`: the melting point fell in the range of 66 to 68 °C.

Regarding `Clc1ccc(C2(Cn3cncn3)OC2c2ccc(Cl)cc2Cl)cc1` (stereo not drawn), the melting point is 119 °C.

In the case of `CCOC(=O)c1cn(-c2cccnc2)nc1Cl`, the melting point was 90 to 93 °C.

For `Cc1ccc(O)c2c1C(C)CC2=O` (stereo not drawn), the melting point fell in the range of 52 to 53 °C.

As to `CC1CCN(c2ccnc(NC(=O)NCc3ccccn3)c2)C1=O` (stereo not drawn), the melting point lay in the range of 190 to 191 °C.

`COC(=O)c1nn(Cc2ccc(Br)cc2F)c(=O)c2ccc(F)cc12` showed a melting point of 131 to 134 °C.

As for `COc1ccc(N2C(=O)CCN(C)c3ccc(Cl)cc32)cc1`, the melting point was in the range of 144 to 145 °C.

`CCC(Oc1ccccc1OC)C(=O)OC1CC(O)C=C2C=CC(C)C(CCC3CC(O)CC(=O)O3)C21` (mixture of isomers) gave a melting point of 116 to 117 °C.

With `O=C(CCCN1CCC(NC(=O)c2ccccc2)CC1)c1ccc(F)cc1`, the melting point is 161 to 162 °C.

Turning to `COc1cc(CO)cc(F)n1`, the melting point is 46 to 49 °C.

The compound `COCc1c(C(O)c2ccccc2)ncc2c1c1cc(OCc3ccccc3)ccc1n2S(=O)(=O)c1ccc(C)cc1` (stereo not drawn) returned a melting point of 146 to 147 °C.

Regarding `CCOc1c(C(=O)OCC(C)(C)C(O)C(C)(C)C)oc2ccc(OC)cc12` (stereo not drawn), the melting point was 100 to 101 °C.

In the case of `O=CN[C@H]1CC[C@H](CCN2CCN(c3nccc4c3OCC4)CC2)CC1`, the melting point was determined as 154 °C.

Turning to `CCOC(=O)c1c(C)nc(N2CCN(C)CC2)c([N+](=O)[O-])c1Cl`, the melting point lay within 59 to 61 °C.

The compound `NC(=O)Cn1c(-c2ccc(Cl)cc2)nc2ncccc21` gave a melting point of 280 to 283 °C.

Compound `CC(C)n1cc(Nc2nc(-c3ccc4cn[nH]c4c3)cn3ccnc23)cn1` returned a melting point of more than 250 °C.

Take `Cc1ccc([N+](=O)[O-])c(C=C2C(=O)NC(=O)N2C)c1`: the melting point was in the range of 261 to 262 °C.

The compound `c1cncc(-c2nccs2)c1` showed a melting point of 44 to 45 °C.

On to `COc1ccc(NC(=O)c2ccc(C)cc2O)cc1`, for which the melting point was 185 to 186 °C.

Consider `CC1(C)SCN(CCCCN2CCN(c3n[nH]c4ccccc34)CC2)C1=O`, for which the melting point was in the range of 139 to 142 °C.

`CCCC1=C(C(=O)OCC)C(c2cccc([N+](=O)[O-])c2)C(C(=O)OCC)=C(CCC)N1COCC` had a melting point of 109 to 110 °C.

Compound `CCCOc1cc(C2(C)CNC(=O)O2)ccc1OC` (stereo not drawn) yielded a melting point of 78 °C.

Compound `Cc1c(CCCCCCCCCC(=O)O)cccc1C(=O)c1ccc(Cl)cc1` registered a melting point of 74 °C.

`Cc1ccc(-c2ccccc2CC(N)=NO)cc1` gave a melting point of 127 to 128 °C.

`Cc1c(C=O)cc(-c2ccc(S(C)(=O)=O)cc2)n1-c1ccc(F)cc1` displayed a melting point of 136 to 138 °C.

Regarding `O=C(Nc1ccc(Cc2nnn[nH]2)cc1)C(F)(F)C(F)(F)C(F)(F)C(F)(F)C(F)(F)C(F)(F)C(F)(F)F`, the melting point fell in the range of 193 to 194 °C.

Turning to `COc1ccc2cc(CNC(=O)c3oc4ccccc4c3C)ccc2c1Br`, the melting point is 154 to 156 °C.

In turn, `CC(C)(C)OC(=O)N(Cc1ccc(C(=O)O)cc1)c1ccc(C2CCCCC2)cc1` registered a melting point of 192 to 194 °C.

For the compound `O=C(NO)[C@H](CNS(=O)(=O)c1ccc(OCC2CC2)cc1)N1CCOCC1`, the melting point was determined as 147 °C.

`COc1cc(C=O)cc(C#N)c1OC`: the melting point fell in the range of 109 to 112 °C.

For the compound `O=C(O)c1ccc2sc3ccccc3c(=O)c2c1`, the melting point was in the range of 310 to 316 °C.

As for `ClCCCCCCOc1ccc(C2=C(c3ccccc3)CCCc3cc(OC4CCCCO4)ccc32)cc1` (stereo not drawn), the melting point was 84 to 86 °C.

Consider `NS(=O)(=O)c1cc(C(=O)Nc2ccccc2)ccc1F`, for which the melting point was in the range of 219 to 221 °C.

In turn, `Clc1ccc(N=Cc2ccccc2)cc1Cl` gave a melting point of 62 to 65 °C.

`c1ccc2c(c1)CCCC2N1CCCNCC1` (stereo not drawn) came in with a melting point of 107 to 109 °C.

Compound `O=[N+]([O-])c1ccc(-c2nc(-c3ccc([N+](=O)[O-])cc3)c(-c3ccc([N+](=O)[O-])cc3)[nH]2)cc1` gave a melting point of 320 to 322 °C.

On to `COc1ccc(-c2nc(C)c(C(=O)OCC[Si](C)(C)C)s2)cc1`, for which the melting point was 80 to 82 °C.

For `CN(C)c1ccc(NC(=O)NC2CCC2)c(C(=O)NCC2CCN(C(c3ccccc3)c3ccccc3)CC2)c1`, the melting point is 210 to 212 °C.

Turning to `CCOCCOc1ccc2c(c1)C(N(CC)S(C)(=O)=O)CC(C)(C)O2` (stereo not drawn), the melting point was in the range of 73 to 75 °C.

For `Cc1[nH]c2ccc(O)cc2c1C(=O)NC1CCN(CCCc2ccccc2)CC1`, the melting point fell in the range of 181 to 184 °C.

`NC(=S)C1CCCc2cccnc21` (stereo not drawn) returned a melting point of 160 °C.

As for `Cc1nn(CC(F)(F)F)c(C(N)=O)c1[N+](=O)[O-]`, the melting point is 205 to 207 °C.

In the case of `COC(=O)CC(=O)c1cc(CN2CCOCC2)sc1Cl`, the melting point was 67 to 68 °C.

The compound `Cc1ccc(Cl)cc1NC(=O)NCC1(c2ccccc2)CCCCC1` gave a melting point of 200 to 202 °C.

`CCc1nc2c(N)nc3ccccc3c2n1CCCCNS(C)(=O)=O` yielded a melting point of 198 to 200 °C.

As for `CSc1nc(NC(=O)C2([N+](=O)[O-])C=CC=CC2S(N)(=O)=O)nn1C` (stereo not drawn), the melting point lay in the range of 210 to 213 °C.

For the compound `O=C(O)CC1CN(Cc2ccc(Cl)c(Cc3ccccc3)c2Cl)C(=O)N(c2ccc(Br)cc2)C1` (stereo not drawn), the melting point was in the range of 174 to 176 °C.

Turning to `CC1(c2ccc([N+](=O)[O-])cc2)C(=O)Nc2cc(Cl)cc(Cl)c2C1=O` (stereo not drawn), the melting point was in the range of 264 to 265 °C.

`Cc1cc(C2=CC(=O)c3cccc(O)c3C2=O)c(C)[nH]1`: the melting point was in the range of 195 to 196 °C.

With `Cn1c(N=C=O)c(-c2ccccc2)c2cc([N+](=O)[O-])ccc21`, the melting point is more than 250 °C.

On to `CNS(=O)(=O)c1ccc(Nc2nc(N)c(C(=O)c3sccc3C)s2)cc1`, for which the melting point lay within 197 to 200 °C.

Turning to `COc1ccc2cc([C@H](C)C(=O)OCCNC(=O)OC(C)(C)C)ccc2c1`, the melting point is 82 to 84 °C.

`CCc1nc2c(N)nc3cc(-c4ccncc4)ccc3c2n1CC(C)(C)O` had a melting point of more than 250 °C.

Regarding `COc1ccccc1-c1cncc(OC2SCC(O)C(O)C2O)c1` (stereo not drawn), the melting point was in the range of 209 to 211 °C.

The compound `CCn1cnc2c(=O)[nH]c(N)nc21` had a melting point of more than 300 °C.

Take `Cc1ccccc1C1=C(c2cccc(OCc3ccccc3)c2)OS(=O)(=O)CC1`: the melting point lay within 257 to 259 °C.

On to `CCOC(=O)NC(=S)Nc1ccc(Br)cn1`, for which the melting point is 159 to 161 °C.

`O=CN1CCC(Oc2c(F)c(F)c(F)c(F)c2F)(c2ccccc2)CC1`: the melting point is 118 to 119 °C.
